# Assay results: ChEMBL document CHEMBL1146215, “Computer-aided rational drug design: a novel agent (SR13668) designed to mimic the unique anticancer mechanisms of dietary indole-3-carbinol to block Akt signaling” (J Med Chem, 2007)
# Calls of active or inactive are those of the source. No cut-off for these calls is given here.
# Assays:
# MCF7 [1] = experiment: Antitumor activity against MCF7 cells; format: functional, cell-based; conditions: Homo sapiens
# Homo sapiens = organism: Homo sapiens; experiment: Inhibition of PI3K
# Rattus norvegicus [2] = experiment: Toxicity in Sprague-Dawley rat at 600 mg/kg/day, po after 14 days; format: organism-based; set-up: route oral; conditions: in vivo, 336 h
# [3] = target: RAC-gamma serine/threonine-protein kinase (Homo sapiens) (UniProt Q9Y243); experiment: Inhibition of Akt3
# RAC-gamma serine/threonine-protein kinase (Homo sapiens), sequence (Q9Y243 whole entry): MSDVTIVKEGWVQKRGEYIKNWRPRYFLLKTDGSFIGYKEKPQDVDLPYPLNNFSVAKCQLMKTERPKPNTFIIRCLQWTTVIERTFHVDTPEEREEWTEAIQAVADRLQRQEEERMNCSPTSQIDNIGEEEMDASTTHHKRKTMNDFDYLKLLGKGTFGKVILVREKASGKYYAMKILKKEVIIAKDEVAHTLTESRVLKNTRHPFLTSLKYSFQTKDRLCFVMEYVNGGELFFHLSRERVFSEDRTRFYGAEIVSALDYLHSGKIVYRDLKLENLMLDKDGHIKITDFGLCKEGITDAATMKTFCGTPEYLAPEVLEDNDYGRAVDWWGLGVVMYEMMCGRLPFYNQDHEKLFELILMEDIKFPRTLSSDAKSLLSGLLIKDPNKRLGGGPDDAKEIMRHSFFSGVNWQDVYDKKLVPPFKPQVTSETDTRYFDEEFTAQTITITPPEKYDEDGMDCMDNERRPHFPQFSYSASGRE
# Mus musculus [4] = experiment: Toxicity assessed as effect on body weight of mouse at 500 mg/kg/day, po after 14 days; format: organism-based; set-up: route oral; conditions: in vivo, 336 h
# [5] = target: RAC-beta serine/threonine-protein kinase (Homo sapiens) (UniProt P31751); experiment: Inhibition of Akt2
# RAC-beta serine/threonine-protein kinase (Homo sapiens), sequence (P31751 whole entry): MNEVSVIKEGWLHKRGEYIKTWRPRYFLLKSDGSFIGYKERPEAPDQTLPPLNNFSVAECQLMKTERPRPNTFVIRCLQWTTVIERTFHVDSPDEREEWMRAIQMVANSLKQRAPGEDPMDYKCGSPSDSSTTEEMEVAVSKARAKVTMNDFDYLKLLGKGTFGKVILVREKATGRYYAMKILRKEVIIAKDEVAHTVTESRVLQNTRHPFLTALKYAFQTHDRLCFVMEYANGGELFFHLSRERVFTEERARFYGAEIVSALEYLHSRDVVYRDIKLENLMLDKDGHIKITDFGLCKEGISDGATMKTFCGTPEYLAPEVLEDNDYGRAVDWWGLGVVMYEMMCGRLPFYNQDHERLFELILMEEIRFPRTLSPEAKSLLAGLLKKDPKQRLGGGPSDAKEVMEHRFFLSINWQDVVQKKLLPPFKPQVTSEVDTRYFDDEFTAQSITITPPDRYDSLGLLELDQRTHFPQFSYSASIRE
# Rattus norvegicus [6] = experiment: Toxicity in Sprague-Dawley rat at 75 mg/kg/day, po after 14 days; format: organism-based; set-up: route oral; conditions: in vivo, 336 h
# Mus musculus [7] = organism: Mus musculus; experiment: Genotoxicity by mouse micronucleus test; format: toxicity, organism-based; conditions: in vivo
# MDA-MB-231 = experiment: Inhibition of tumor growth in MDA-MB-231 cells xenografted po dosed mouse; format: functional, organism-based; conditions: Homo sapiens
# PC-3 [8] = experiment: Inhibition of tumor growth in PC3 cells xenografted po dosed mouse; format: functional, organism-based; conditions: Homo sapiens
# Rattus norvegicus [9] = experiment: Toxicity in Sprague-Dawley rat at 25 mg/kg/day, po after 14 days; format: organism-based; set-up: route oral; conditions: in vivo, 336 h
# SK-OV-3 = experiment: Inhibition of tumor growth in SKOV3 cells xenografted po dosed mouse; format: functional, organism-based; conditions: Homo sapiens
# Rattus norvegicus [10] = experiment: Toxicity in Sprague-Dawley rat at 200 mg/kg/day, po after 14 days; format: organism-based; set-up: route oral; conditions: in vivo, 336 h
# [11] = target: Glycogen synthase kinase-3 beta (Homo sapiens) (UniProt P49841); experiment: Inhibition of GSK3-beta activity in PC3 cells; format: cell-based; conditions: PC-3
# Glycogen synthase kinase-3 beta (Homo sapiens), sequence (P49841 whole entry, looked up): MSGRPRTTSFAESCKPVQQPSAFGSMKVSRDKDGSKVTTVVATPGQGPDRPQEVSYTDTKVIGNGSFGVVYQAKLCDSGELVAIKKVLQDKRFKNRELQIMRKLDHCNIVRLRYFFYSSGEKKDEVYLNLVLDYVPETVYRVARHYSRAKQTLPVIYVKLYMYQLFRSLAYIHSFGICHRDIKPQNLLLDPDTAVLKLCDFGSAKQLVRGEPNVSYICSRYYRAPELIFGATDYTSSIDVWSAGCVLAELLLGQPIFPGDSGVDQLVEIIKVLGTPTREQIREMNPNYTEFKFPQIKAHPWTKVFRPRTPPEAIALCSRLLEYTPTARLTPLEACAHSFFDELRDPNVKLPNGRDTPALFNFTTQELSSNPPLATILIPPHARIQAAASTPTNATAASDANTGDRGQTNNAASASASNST
# [12] = target: T1, 3-phosphoinositide-dependent protein kinase 1 (Homo sapiens) (UniProt O15530); experiment: Inhibition of PDK1
# T1 sequence (whole entry): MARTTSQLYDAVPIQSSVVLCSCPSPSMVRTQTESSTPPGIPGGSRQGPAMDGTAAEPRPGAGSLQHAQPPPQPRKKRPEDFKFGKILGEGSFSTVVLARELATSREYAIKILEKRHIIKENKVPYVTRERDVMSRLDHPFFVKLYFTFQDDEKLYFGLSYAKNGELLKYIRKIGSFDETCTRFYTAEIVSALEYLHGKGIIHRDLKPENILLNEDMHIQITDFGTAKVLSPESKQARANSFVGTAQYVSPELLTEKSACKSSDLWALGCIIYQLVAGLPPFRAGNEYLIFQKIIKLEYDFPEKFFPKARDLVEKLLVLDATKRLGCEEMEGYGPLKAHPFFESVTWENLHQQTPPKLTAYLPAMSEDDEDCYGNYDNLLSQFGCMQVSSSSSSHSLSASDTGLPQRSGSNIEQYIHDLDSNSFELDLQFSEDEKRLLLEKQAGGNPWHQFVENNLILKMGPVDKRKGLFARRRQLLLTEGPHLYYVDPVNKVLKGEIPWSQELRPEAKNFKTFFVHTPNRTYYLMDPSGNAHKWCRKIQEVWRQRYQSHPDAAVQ
# PC-3 [13] = experiment: Inhibition of serum-stimulated AKT phosphorylation in PC3 cells; format: cell-based; conditions: Homo sapiens
# [14] = target: RAC-alpha serine/threonine-protein kinase (Homo sapiens) (UniProt P31749); experiment: Inhibition of Akt1
# RAC-alpha serine/threonine-protein kinase (Homo sapiens), sequence (P31749 whole entry): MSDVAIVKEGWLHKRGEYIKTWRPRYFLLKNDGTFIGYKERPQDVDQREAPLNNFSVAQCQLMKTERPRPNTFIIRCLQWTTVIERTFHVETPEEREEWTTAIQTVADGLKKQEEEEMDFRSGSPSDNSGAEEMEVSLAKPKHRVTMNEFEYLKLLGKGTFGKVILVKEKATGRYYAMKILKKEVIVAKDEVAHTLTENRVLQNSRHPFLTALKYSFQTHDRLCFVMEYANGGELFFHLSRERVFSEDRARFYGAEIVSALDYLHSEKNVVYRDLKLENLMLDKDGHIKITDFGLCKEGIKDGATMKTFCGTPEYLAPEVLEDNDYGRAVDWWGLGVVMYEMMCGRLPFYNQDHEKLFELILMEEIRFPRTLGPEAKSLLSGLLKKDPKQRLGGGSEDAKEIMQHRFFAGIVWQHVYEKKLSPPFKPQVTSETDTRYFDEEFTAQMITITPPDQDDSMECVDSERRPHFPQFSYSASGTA
# MDA-MB-468 = experiment: Inhibition of serum-stimulated AKT phosphorylation in MDA-MB-468 cells; format: cell-based; conditions: Homo sapiens
# Mus musculus [15] = experiment: Toxicity assessed as effect on fasting glucose level in mouse at 500 mg/kg/day, po after 14 days; format: organism-based; set-up: route oral; conditions: in vivo, 336 h
# MCF7 [16] = experiment: Inhibition of tumor growth in MCF7 cells xenografted BALB/c mouse at 10 mg/kg/day, ip after 30 days; format: functional, Homo sapiens; conditions: 720 h, route intraperitoneal
# MCF7 [17] = experiment: Inhibition of tumor growth in MCF7 cells xenografted BALB/c mouse at 10 mg/kg/day, po after 30 days; format: functional, Homo sapiens; conditions: MCF7, 720 h
smiles,measurement,setting,value
CS(=O)(=O)c1ccc2[nH]cc(Cc3c[nH]c4ccc(S(C)(=O)=O)cc34)c2c1,IC50,MCF7 [1],> 10000 nM
c1ccc2[nH]c(Cc3cc4ccccc4[nH]3)cc2c1,IC50,MCF7 [1],940 nM
CCOC(=O)Oc1c2[nH]c3ccc(C(=O)OCC)cc3c2cc2c1[nH]c1ccc(C(=O)OCC)cc12,IC50,MCF7 [1],110 nM
c1ccc2c(Cc3c[nH]c4ccccc34)c[nH]c2c1 [ARUNDINE],IC50,MCF7 [1],5500 nM
CC(C)(c1c[nH]c2ccccc12)c1c[nH]c2ccccc12,IC50,MCF7 [1],> 10000 nM
CCOC(=O)c1ccc2[nH]c3c(OC)c4[nH]c5ccc(C(=O)OCC)cc5c4cc3c2c1 [SR-13668],Activity,Homo sapiens,inactive
same,Activity,Rattus norvegicus [2],Non-toxic
same,Activity,[3],inactive
same,Activity,Mus musculus [4],Active
same,Activity,[5],inactive
same,Activity,Rattus norvegicus [6],Non-toxic
same,Activity,Mus musculus [7],Non-toxic
same,Activity,MDA-MB-231,Active
same,Activity,PC-3 [8],Active
same,Activity,Rattus norvegicus [9],Non-toxic
same,Activity,SK-OV-3,Active
same,Activity,Rattus norvegicus [10],Non-toxic
same,Activity,[11],Active
same,Activity,[12],inactive
same,IC50,MCF7 [1],190 nM
same,Activity,PC-3 [13],Active
same,Activity,[14],inactive
same,Activity,MDA-MB-468,Active
same,Activity,Mus musculus [15],Active
C=C(c1c[nH]c2ccccc12)c1c[nH]c2ccccc12,IC50,MCF7 [1],3300 nM
c1cc(-c2c[nH]c3ccccc23)cc(-c2c[nH]c3ccccc23)c1,IC50,MCF7 [1],> 10000 nM
CCOC(=O)c1ccc2[nH]c3c(C(F)(F)C(F)(F)C(F)(F)F)c4[nH]c5ccc(C(=O)OCC)cc5c4cc3c2c1,IC50,MCF7 [1],90 nM
CCOC(=O)c1ccc2[nH]cc(Cc3c[nH]c4ccc(C(=O)OCC)cc34)c2c1,IC50,MCF7 [1],1750 nM
O=C(O)c1ccc2[nH]cc(Cc3c[nH]c4ccc(C(=O)O)cc34)c2c1,IC50,MCF7 [1],> 10000 nM
CN(C)C(=O)c1ccc2[nH]cc(Cc3c[nH]c4ccc(C(=O)N(C)C)cc34)c2c1,IC50,MCF7 [1],> 10000 nM
CCOC(=O)Oc1c2[nH]c3ccccc3c2cc2c1[nH]c1ccccc12,inhibition in vivo at 10 mg/kg/day,MCF7 [16],43%
same,inhibition in vivo at 10 mg/kg/day,MCF7 [17],26%
same,IC50,MCF7 [1],80 nM
